pEC50: −log10 of the molar value.
Target: GTPase HRas (Homo sapiens) (UniProt P01112)
Assay: blockade of GTP loading onto mutant Ras – biochemical, activated mutant, multiplex bead flow cytometry, dose response (AID 1341);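 also: GST-tagged constitutively activated Ras mutant immobilized on beads and multiplexed with other GTPases; potency for blocking fluorescent GTP binding to Ras so compounds act as competitors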
Conditions: bead-based flow cytometry, Bodipy-FL-GTP binding

pEC50	SMILES
5.71	N#Cc1c(-c2ccccc2)nc(SCC(=O)Nc2ccccc2)[nH]c1=O
6.84	CC1(C)Cc2c(sc(NC(=S)NC(=O)c3ccccc3)c2C(=O)O)CO1
5.61	CC(=O)c1c(C)[nH]c(C(=O)N2CCc3ccccc3C2)c1C
6.20	CC(C)Cc1csc(NC(=O)c2ccccc2Cl)c1C(=O)O
4.96	Cc1cc(NC(=O)CSc2nc(-c3ccccc3)c(C#N)c(=O)[nH]2)no1
5.22	COc1ccc(C(=O)c2c(O)cc(-c3ccc(OC)cc3)oc2=O)cc1
6.71	Cc1ccc(C)c(OCCn2cc(C(=O)O)c3ccccc32)c1
6.37	Cc1cc(C(=O)O)sc1CNCc1ccccc1Cl
